Experimental data reported in article PMC10093836, “Stabilization of the Dimeric State of SARS-CoV-2 Main Protease by GC376 and Nirmatrelvir” (International Journal of Molecular Sciences, 2023).

Biological target: SARS-CoV-2 Mpro dimer (Severe acute respiratory syndrome coronavirus 2, UniProt P0DTD1)
Test: SAXS monomer-dimer equilibrium of Mpro in the presence of inhibitors

For `CC(C)c1nc(CN(C)C(=O)N[C@H](C(=O)N[C@@H](Cc2ccccc2)C[C@H](O)[C@H](Cc2ccccc2)NC(=O)OCc2cncs2)C(C)C)cs1` [RTV, ritonavir], the “ΔCp of Mpro dimer dissociation” value (Mpro alone 1.3 ± 0.4) was 4 ± 1 kJ K^−1mol^−1, the “ΔS^0 of Mpro dimer dissociation” value (T0 = 298.15 K, Mpro alone −30 ± 10) was −70 ± 50 J K^−1mol^−1 and the “ΔH^0 of Mpro dimer dissociation” value (T0 = 298.15 K, derived parameter of the fit, Mpro alone 21 ± 4) was 2.63 ± 1.2 kcal/mol.
